Laboratory results reported in patent US9951060B2, “2-acylaminothiazole derivative or salt thereof” (ASTELLAS PHARMA INC., priority 2014, dated 2018).
Structures can show the parent of a compound that is named as a salt.

Columns and labels:
[1] = system: pelvic nerve stimulation-induced elevation of intravesical pressure; experiment: Test Example 4: effect on pelvic nerve stimulation-induced elevation of intravesical pressure in anesthetized rats; format: in vivo, rat; conditions: 3 mg/kg intravenous; maximum effect within one hour; anesthetized SD female rats; pre-treatment = 100%
Experimental: Test Example 4: Effect on Pelvic Nerve Stimulation-Induced Elevation of Intravesical Pressure in Anesthetized Rats
The effect of the Example compounds of the present invention in the pelvic nerve electrical stimulation-induced elevation of intravesical pressure using rats as an action of nerve stimulation-dependent bladder contraction in vivo was measured by the following method. That is, SD female rats (Japan SLC, Inc.) were used and its lower abdomen was dissected at the midline under pentobarbital anesthesia (50 mg/kg ip). After ligating and cutting the ureter on both sides, a cannula (PE-50) for measuring the intravesical pressure was inserted into the bladder from the external urethral opening and fixed by a clip. After injecting about 200 μL of saline through the cannula that had been inserted into the bladder, the other side was connected to a pressure transducer to measure the intravesical pressure. Under a stereoscopic microscope observation, the pelvic nerve in the vicinity of the bladder was peeled and an electrode for nerve stimulation (unique Medical) was placed. The abdominal cavity was filled with mineral oil (MP BIOMEDICALS). After placing in a post-operative stabilization period, the pelvic nerve was subjected to electrical stimulation (stimulation voltage: 10 V, stimulation frequency: 8 Hz, pulse width: 0.3 msec, and stimulation time: 10 seconds) to elicit the elevation of intravesical pressure, using an electrical stimulator (Nihon Kohden). By repeating the electrical stimulation at an interval of 2 minutes while adjusting the voltage, the voltage was adjusted to elicit about 50% to 70% elevation of intravesical pressure elicited at 10 V. Thereafter, by repeating the electrical stimulation at an interval of 10 minutes, the increase in the intravesical pressure by electrical stimulation was stabilized three times or more, and the test substance (an administration amount of 3 mg/kg) was then administered from the catheter detained in the vein at a volume of 1 mL/kg, thus measuring an effect of the elevation of the intravesical pressure of the test substance for 1 hour. The test substance was dissolved in water supplemented with 10% dimethylsulfoxide and 10% Cremophor.
The response was applied to a personal computer through a PowerLab (registered trademark) and analyzed by LabChart (registered trademark). The AUC of each elevation of the intravesical pressure was calculated, the intravesical pressure elevation rate (% of pre) after the treatment with the test substance was calculated by taking an average value of the values measured three times before the treatment with the test substance as 100%, and the maximum effect during a period within one hour after administration of the compound was considered as the effect of the test substance.
The elevation rates (% of pre) of the intravesical pressure when some Example compounds were administered at 3 mg/kg are shown in Table 4.

[2] = biological target: human muscarinic M3 receptor (Homo sapiens, UniProt P20309); experiment: Test Example 1: muscarinic M3 receptor positive allosteric modulator activity (shift of carbachol concentration-response curve, intracellular Ca2+, FLIPR); conditions: carbachol EC50 without / with test substance, CHO-K1 cells expressing human M3; for muscarinic M3 receptor-positive allosteric modulator activity, 1 μM (-fold shift): test substance 1 μM; for muscarinic M3 receptor-positive allosteric modulator activity, 10 μM (-fold shift): test substance 10 μM
Chain of human muscarinic M3 receptor (P20309 whole entry): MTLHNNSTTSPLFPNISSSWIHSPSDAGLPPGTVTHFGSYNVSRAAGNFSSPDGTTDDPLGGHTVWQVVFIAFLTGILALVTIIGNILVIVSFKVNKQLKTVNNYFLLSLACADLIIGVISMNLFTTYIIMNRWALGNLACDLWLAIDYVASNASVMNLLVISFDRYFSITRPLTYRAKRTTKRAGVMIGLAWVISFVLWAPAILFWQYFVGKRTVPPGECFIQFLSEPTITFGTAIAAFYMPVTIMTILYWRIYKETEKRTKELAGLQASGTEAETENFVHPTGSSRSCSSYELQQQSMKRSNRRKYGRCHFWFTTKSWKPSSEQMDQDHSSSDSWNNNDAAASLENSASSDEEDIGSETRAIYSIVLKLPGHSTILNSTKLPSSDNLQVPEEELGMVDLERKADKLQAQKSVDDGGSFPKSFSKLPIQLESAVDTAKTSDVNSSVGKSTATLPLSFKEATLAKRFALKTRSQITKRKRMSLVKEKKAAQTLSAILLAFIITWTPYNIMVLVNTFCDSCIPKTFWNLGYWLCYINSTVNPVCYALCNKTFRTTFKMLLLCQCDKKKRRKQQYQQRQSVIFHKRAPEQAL

SMILES	Increase rate (% of pre) of intravesical pressure [1]	muscarinic M3 receptor-positive allosteric modulator activity, 1 μM (-fold shift) [2]	muscarinic M3 receptor-positive allosteric modulator activity, 10 μM (-fold shift) [2]
C[C@@H]1CCCN1Cc1sc(NC(=O)c2cnc(N3CCN(CCC(=O)O)C[C@H]3C)cn2)nc1-c1cc(C(F)(F)F)cs1 [Example 3, 3-[(3R)-3-methyl-4-{5-[(5-{[(2R)-2-methylpyrrolidin-1-yl]methyl}-4-[4-(trifluoromethyl)thiophen-2-yl]-1,3-thiazol-2-yl)carbamoyl]pyrazin-2-yl}piperazin-1-yl]propanoic acid dihydrochloride]	251 % of pre	–	–
COc1ccc(-c2nc(NC(=O)c3cnc(N4CCN(CCC(=O)O)[C@@H](C)C4)cn3)sc2CN2CCC[C@H]2C)cc1C(F)(F)F [Example 10]	145 % of pre	–	–
C[C@@H]1CCCN1Cc1sc(NC(=O)c2cnc(N3CCN(CCC(=O)O)CC3)cn2)nc1-c1cc(Cl)cc(C(F)(F)F)c1 [Example 11]	132 % of pre	–	–
C[C@@H]1CCCN1Cc1sc(NC(=O)c2cnc(N3CCN(CC(=O)O)CC3)cn2)nc1-c1cc(Cl)cc(C(F)(F)F)c1 [Example 13]	132 % of pre	–	–
C[C@@H]1CCCN1Cc1sc(NC(=O)c2cnc(N3CCN(CCC(=O)O)CC3)cn2)nc1-c1ccc(Cl)c(C(F)(F)F)c1 [Example 15]	142 % of pre	–	–
C[C@@H]1CCCN1Cc1sc(NC(=O)c2cnc(N3CCN(CCCC(=O)O)CC3)cn2)nc1-c1cc(F)cc(C(F)(F)F)c1 [Example 21]	155 % of pre	–	–
CC[C@@H]1CCCN1Cc1sc(NC(=O)c2cnc(N3CCN(CCC(=O)O)C[C@@H]3C)cn2)nc1-c1cc(Cl)cs1 [Example 28]	184 % of pre	–	–
C[C@@H]1CCCN1Cc1sc(NC(=O)c2cnc(N3CCN(CCC(=O)[O-])CC3)cn2)nc1-c1cc(C#N)cc(C(F)(F)F)c1.[Na+] [Example 34]	134 % of pre	18 -fold shift	116 -fold shift
CC[C@@H]1CCCN1Cc1sc(NC(=O)c2cnc(N3CCN(CCC(=O)O)CC3)cn2)nc1-c1ccc(OC)c(C(F)(F)F)c1 [Example 42]	149 % of pre	–	–
COc1c(Cl)cc(-c2nc(NC(=O)c3cnc(N4CCN(CCC(=O)O)CC4)cn3)sc2CN2CCC[C@H]2C)cc1Cl [Example 43]	125 % of pre	–	–
Cc1cc(OC(F)(F)F)cc(-c2nc(NC(=O)c3cnc(N4CCN(CCC(=O)O)CC4)cn3)sc2CN2CCC[C@H]2C)c1 [Example 46]	126 % of pre	–	–
Cc1cc(OC(F)(F)F)cc(-c2nc(NC(=O)c3cnc(N4CCN(C(C)C(=O)O)CC4)cn3)sc2CN2CCC[C@H]2C)c1 (stereo partly shown) [Example 48]	121 % of pre	–	–
C[C@@H]1CCCN1Cc1sc(NC(=O)c2cnc(N3CCN(CCC(=O)O)CC3)cn2)nc1-c1cc(F)cc(C(F)(F)F)c1 [Example 49]	172 % of pre	–	–
C[C@@H]1CCCN1Cc1sc(NC(=O)c2cnc(N3CCN(CCC(=O)O)CC3)cn2)nc1-c1cc(Cl)cs1 [Example 50]	207 % of pre	–	–
C[C@@H]1CCCN1Cc1sc(NC(=O)c2cnc(N3CCN(CC(=O)O)CC3)cn2)nc1-c1cc(Cl)cs1 [Example 51]	223 % of pre	–	–
COc1cc(-c2nc(NC(=O)c3cnc(N4CCN(CCC(=O)O)CC4)cn3)sc2CN2CCC[C@H]2C)cc(C(F)(F)F)c1 [Example 52]	129 % of pre	–	–
C[C@@H]1CCCN1Cc1sc(NC(=O)c2cnc(N3CCN(CCC(=O)O)CC3)cn2)nc1-c1ccc(F)c(C(F)(F)F)c1 [Example 60]	130 % of pre	–	–

SMILES	Increase rate (% of pre) of intravesical pressure [1]	muscarinic M3 receptor-positive allosteric modulator activity, 1 μM (-fold shift) [2]	muscarinic M3 receptor-positive allosteric modulator activity, 10 μM (-fold shift) [2]
C[C@@H]1CCCN1Cc1sc(NC(=O)c2cnc(N3CCN(CC(=O)O)CC3)cn2)nc1-c1ccc(F)c(C(F)(F)F)c1 [Example 61]	129 % of pre	–	–
CC(C(=O)O)N1CCN(c2cnc(C(=O)Nc3nc(-c4cc(F)cc(C(F)(F)F)c4)c(CN4CCC[C@H]4C)s3)cn2)CC1 (stereo partly shown) [Example 64]	135 % of pre	–	–
CC[C@@H]1CCCN1Cc1sc(NC(=O)c2cnc(N3CCN(CCC(=O)O)CC3)cn2)nc1-c1cccc(C(F)(F)F)c1 [Example 65]	128 % of pre	–	–
C[C@@H]1CCCN1Cc1sc(NC(=O)c2cnc(N3CCN(CCC(=O)O)CC3)cn2)nc1-c1cc(C2CC2)cc(C(F)(F)F)c1 [Example 67]	126 % of pre	–	–
COc1c(F)cc(-c2nc(NC(=O)c3cnc(N4CCN(CCC(=O)O)CC4)cn3)sc2CN2CCC[C@H]2C)cc1C(F)(F)F [Example 72]	155 % of pre	–	–
C[C@@H]1CCCN1Cc1sc(NC(=O)c2cnc(N3CCN(CCC(=O)O)CC3)cn2)nc1-c1cc(Cl)cs1 [Example 82]	138 % of pre	–	–
C[C@@H]1CCCN1Cc1sc(NC(=O)c2cnc(N3CCN(CCC(=O)O)[C@@H](C)C3)cn2)nc1-c1cc(C(F)(F)F)cs1 [Example 95]	239 % of pre	–	–
CCN(CC)Cc1sc(NC(=O)c2cnc(N3CCN(CCC(=O)O)CC3)cn2)nc1-c1cc(F)cc(C(F)(F)F)c1 [Example 109]	180 % of pre	–	–
C[C@@H]1CC[C@@H](C)N1Cc1sc(NC(=O)c2cnc(N3CCN(CCC(=O)O)CC3)cn2)nc1-c1cc(F)cc(C(F)(F)F)c1 [Example 119]	173 % of pre	–	–
CCC[C@@H]1CCCN1Cc1sc(NC(=O)c2cnc(N3CCN(CCC(=O)[O-])CC3)cn2)nc1-c1cccc(C(F)(F)F)c1.[Na+] [Example 124]	143 % of pre	28 -fold shift	101 -fold shift
CCOc1ccc(-c2nc(NC(=O)c3cnc(N4CCN(CCC(=O)O)C[C@H]4C)cn3)sc2CN2CCC[C@H]2CC)cc1C(F)(F)F [Example 133]	150 % of pre	–	–
CC[C@@H]1CCCN1Cc1sc(NC(=O)c2cnc(N3CCN(CCC(=O)O)C[C@H]3C)cn2)nc1-c1ccc(OC(C)C)c(C(F)(F)F)c1 [Example 135]	168 % of pre	–	–
C[C@@H]1CCCN1Cc1sc(NC(=O)c2cnc(N3CCN(CCC(=O)O)C[C@H]3C)cn2)nc1-c1cc(F)cc(C(F)(F)F)c1 [Example 140]	148 % of pre	–	–
C[C@@H]1CCCN1Cc1sc(NC(=O)c2cnc(N3CCN(CC(=O)O)C[C@H]3C)cn2)nc1-c1cc(F)cc(C(F)(F)F)c1 [Example 141]	175 % of pre	–	–
C[C@@H]1CCCN1Cc1sc(NC(=O)c2cnc(N3CCN(CCC(=O)O)[C@@H](C)C3)cn2)nc1-c1cc(Cl)cs1 [Example 142]	199 % of pre	–	–
CC[C@@H]1CCCN1Cc1sc(NC(=O)c2cnc(N3CCN(CCC(=O)O)[C@H](C)C3)cn2)nc1-c1cc(Cl)cs1 [Example 143]	172 % of pre	–	–
